Molecules are shown by their SMILES. Active and inactive are the calls of the source. The rule behind the calls is not given here.

A short description of data set [1]: AUC (0 to 6 hrs) in rat plasma at 10 mg/kg, po. Type of data set: ADME, organism-based. On the set-up: time < 6 hr, dose 10 mg/kg, route oral.
Data set [2] concerns the target T1, Proteinase-activated receptor 1 (Homo sapiens, UniProt P25116).
T1 sequence (P25116 whole entry): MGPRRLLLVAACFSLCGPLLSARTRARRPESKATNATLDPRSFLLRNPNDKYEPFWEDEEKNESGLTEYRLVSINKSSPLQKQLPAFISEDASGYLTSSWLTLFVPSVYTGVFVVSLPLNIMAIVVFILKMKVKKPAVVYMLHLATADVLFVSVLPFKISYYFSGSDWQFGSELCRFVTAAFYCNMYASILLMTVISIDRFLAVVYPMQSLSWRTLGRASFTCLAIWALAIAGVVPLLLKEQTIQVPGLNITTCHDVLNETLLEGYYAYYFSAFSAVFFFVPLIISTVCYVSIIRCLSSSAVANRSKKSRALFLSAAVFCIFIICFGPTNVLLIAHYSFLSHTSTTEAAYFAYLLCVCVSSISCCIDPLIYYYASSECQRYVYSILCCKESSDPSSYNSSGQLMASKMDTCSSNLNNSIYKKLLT
Kind of data set: Displacement of [3H]haTRAP from PAR-1 isolated from human platelets by liquid scintillation counting analysis. A general note: In a radioligand displacement assay an active substance lowers the binding of a labelled ligand.

In the next data set the test system is Cynomolgus monkey. Kind of data set: Ex vivo inhibition of PAR-1 in cynomolgus monkey blood assessed as inhibition of haTRAP-induced platelet aggregation at 1 mg/kg, po up to 24 hrs by aggregometry. Type of data set: functional, organism-based. As to conditions: Macaca fascicularis. Further details: dose 1 mg/kg.
Data set [3] can be described thus: Aqueous solubility of the compound. Type of data set: physicochemical.

Take `C[C@H]1OC(=O)[C@@H]2C[C@@H]3C[C@H](CNC(=O)C4CCNCC4)CC[C@H]3[C@H](/C=C/c3ccc(-c4cccc(F)c4)cn3)[C@H]12`: the AUC(0-t) at 6 h in data set [1] is 5 ng·h/mL. In data set [2], the Ki amounted to 13.5 nM. As to `C[C@H](N)C(=O)NC[C@@H]1CC[C@@H]2[C@@H](C1)C[C@H]1C(=O)O[C@H](C)[C@H]1[C@H]2/C=C/c1ccc(-c2cccc(F)c2)cn1`, in data set [2], the affinity, expressed as Ki, was 32 nM. Take `CNC(=O)[C@@H]1CC[C@@H]2[C@@H](C1)C[C@H]1C(=O)O[C@H](C)[C@H]1[C@H]2/C=C/c1ccc(-c2cccc(C(F)(F)F)c2)cn1`: the Ki in data set [2] came to 25 nM. Take `C[C@H]1OC(=O)[C@@H]2C[C@@H]3C[C@H](C(=O)Nc4ccncc4)CC[C@H]3[C@H](/C=C/c3ccc(-c4cccc(C(F)(F)F)c4)cn3)[C@H]12`: the Ki in data set [2] came to 140 nM. In data set [1], `C[C@H]1OC(=O)[C@@H]2C[C@@H]3C[C@H](CNS(C)(=O)=O)CC[C@H]3[C@H](/C=C/c3ccc(-c4cccc(F)c4)cn3)[C@H]12` yielded an AUC(0-t) at 6 h of 7760 ng·h/mL. Moreover, the Ki in data set [2] was determined as 15 nM. The corresponding values for `CCOC(=O)N[C@@H]1CC[C@@H]2[C@@H](C1)C[C@H]1C(=O)O[C@H](C)[C@H]1[C@H]2/C=C/c1ccc(-c2cccc(F)c2)cn1` [VORAPAXAR] are 3060 ng·h/mL and 8.5 nM. The compound `C[C@H]1OC(=O)[C@@H]2C[C@@H]3C[C@H](C(=O)N4CC[C@@H](O)C4)CC[C@H]3[C@H](/C=C/c3ccc(-c4cccc(C(F)(F)F)c4)cn3)[C@H]12` yielded a Ki in data set [2] of 180 nM. Consider `C[C@H]1OC(=O)[C@@H]2C[C@@H]3C[C@H](C(=O)NCCO)CC[C@H]3[C@H](/C=C/c3ccc(-c4cccc(C(F)(F)F)c4)cn3)[C@H]12`, for which affinity in data set [2] was put at a Ki of 98 nM.

The compound `C[C@H]1OC(=O)[C@@H]2C[C@@H]3C[C@H](C(=O)N4CC[C@H](O)C4)CC[C@H]3[C@H](/C=C/c3ccc(-c4cccc(C(F)(F)F)c4)cn3)[C@H]12` registered a Ki in data set [2] of 384 nM.

Take `CCNC(=O)[C@@H]1CC[C@@H]2[C@@H](C1)C[C@H]1C(=O)O[C@H](C)[C@H]1[C@H]2/C=C/c1ccc(-c2cccc(C(F)(F)F)c2)cn1`: affinity in data set [2] was put at a Ki of 35 nM. With `COC(=O)NC[C@@H]1CC[C@@H]2[C@@H](C1)C[C@H]1C(=O)O[C@H](C)[C@H]1[C@H]2/C=C/c1ccc(-c2cccc(F)c2)cn1`, in the data set with Cynomolgus monkey, the outcome was inactive. The AUC(0-t) at 6 h in data set [1] was found to be 4860 ng·h/mL. In addition, in data set [2], the inhibition constant Ki is 5 nM.

On to `CCC(=O)NC[C@@H]1CC[C@@H]2[C@@H](C1)C[C@H]1C(=O)O[C@H](C)[C@H]1[C@H]2/C=C/c1ccc(-c2cccc(F)c2)cn1`, for which the exposure AUC(0-t) at 6 h in data set [1] is 7730 ng·h/mL. In data set [2], this compound returned a Ki of 12.5 nM. Compound `C[C@H]1OC(=O)[C@@H]2C[C@@H]3C[C@H](CNC(=O)[C@@H]4CCCN4)CC[C@H]3[C@H](/C=C/c3ccc(-c4cccc(F)c4)cn3)[C@H]12` returned a Ki in data set [2] of 24 nM. As to `CC(=O)NC[C@@H]1CC[C@@H]2[C@@H](C1)C[C@H]1C(=O)O[C@H](C)[C@H]1[C@H]2/C=C/c1ccc(-c2cccc(F)c2)cn1`, the AUC(0-t) at 6 h in data set [1] is 3810 ng·h/mL. The compound also showed a Ki in data set [2] of 12 nM. `CCOC(=O)NC[C@@H]1CC[C@@H]2[C@@H](C1)C[C@H]1C(=O)O[C@H](C)[C@H]1[C@H]2/C=C/c1ccc(-c2cccc(F)c2)cn1`: the exposure AUC(0-t) at 6 h in data set [1] amounted to 1210 ng·h/mL. The compound further gave a Ki in data set [2] of 14 nM. `C[C@H]1OC(=O)[C@@H]2C[C@@H]3C[C@H](CN)CC[C@H]3[C@H](/C=C/c3ccc(-c4cccc(F)c4)cn3)[C@H]12` displayed a Ki in data set [2] of 20 nM. `C[C@H]1OC(=O)[C@@H]2C[C@@H]3C[C@H](C(=O)Nc4cccnc4)CC[C@H]3[C@H](/C=C/c3ccc(-c4cccc(C(F)(F)F)c4)cn3)[C@H]12` gave a Ki in data set [2] of 239 nM. In turn, `CC(C)NC(=O)[C@@H]1CC[C@@H]2[C@@H](C1)C[C@H]1C(=O)O[C@H](C)[C@H]1[C@H]2/C=C/c1ccc(-c2cccc(C(F)(F)F)c2)cn1` showed a Ki in data set [2] of 31 nM. On to `C[C@H]1OC(=O)[C@@H]2C[C@@H]3C[C@H](CO)CC[C@H]3[C@H](/C=C/c3ccc(-c4cccc(F)c4)cn3)[C@H]12`, for which, in data set [1], the AUC(0-t) at 6 h came to 2670 ng·h/mL. This compound also showed a Ki in data set [2] of 8 nM.

Regarding `CCNC(=O)NC[C@@H]1CC[C@@H]2[C@@H](C1)C[C@H]1C(=O)O[C@H](C)[C@H]1[C@H]2/C=C/c1ccc(-c2cccc(F)c2)cn1`, the AUC(0-t) at 6 h in data set [1] was found to be 567 ng·h/mL. For the same compound, the inhibition constant (Ki) in data set [2] worked out at 12.9 nM. For `CCOC(=O)N[C@@H]1CC[C@@H]2[C@@H](C1)C[C@@]1(O)C(=O)O[C@H](C)[C@H]1[C@H]2/C=C/c1ccc(-c2cccc(F)c2)cn1`, in the data set on Cynomolgus monkey, the result was Active. The compound also gave an AUC(0-t) at 6 h in data set [1] of 7430 ng·h/mL. In addition, in data set [2], affinity was put at a Ki of 19.5 nM.

`CCS(=O)(=O)NC[C@@H]1CC[C@@H]2[C@@H](C1)C[C@H]1C(=O)O[C@H](C)[C@H]1[C@H]2/C=C/c1ccc(-c2cccc(F)c2)cn1` came in with a Ki in data set [2] of 14.5 nM. The compound `CCOC(=O)N1CC[C@@H]2[C@H](C[C@H]3C(=O)O[C@H](C)[C@H]3[C@H]2/C=C/c2ccc(-c3cccc(F)c3)cn2)C1` showed a solubility in data set [3] of less than 2 µM.

By AUC(0-t) is commonly meant the area under the concentration-time curve up to a stated or last time point. What is called Ki is the dissociation constant of the complex between target and ligand, obtained from inhibition or displacement. As usually defined, the solubility is how much of the substance goes into solution per volume.
